Reference: ChEMBL document CHEMBL1125012, “Inhibition of enzymes of estrogen and androgen biosynthesis by esters of 4-pyridylacetic acid” (J Med Chem, 1990)
“And” between values parts separate entries of the source, which are not always exact repeats. Equal values may be shown once.

Molecular target: T1, Steroid 17-alpha-hydroxylase/17,20 lyase (Rattus norvegicus, UniProt P11715)
T1 sequence (P11715 whole entry): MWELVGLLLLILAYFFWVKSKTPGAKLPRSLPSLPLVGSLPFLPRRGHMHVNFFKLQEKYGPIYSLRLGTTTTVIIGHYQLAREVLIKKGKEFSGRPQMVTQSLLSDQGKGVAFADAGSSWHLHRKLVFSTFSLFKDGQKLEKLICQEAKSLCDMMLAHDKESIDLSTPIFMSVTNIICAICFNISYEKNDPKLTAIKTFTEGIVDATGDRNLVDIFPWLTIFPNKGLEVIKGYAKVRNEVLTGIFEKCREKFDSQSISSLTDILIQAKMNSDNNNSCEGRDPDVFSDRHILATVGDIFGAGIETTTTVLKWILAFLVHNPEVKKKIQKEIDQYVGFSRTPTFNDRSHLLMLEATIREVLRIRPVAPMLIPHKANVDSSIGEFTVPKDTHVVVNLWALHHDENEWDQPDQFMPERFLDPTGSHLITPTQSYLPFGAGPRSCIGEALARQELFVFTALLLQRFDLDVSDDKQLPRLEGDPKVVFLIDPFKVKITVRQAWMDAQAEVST

Row | Structure (SMILES) | IC50
1 | CC1(C)C2CCC1(C)C(OC(=O)Cc1ccncc1)C2 (stereo in doubt; 17) | 0.54 µM and 0.59 µM
2 | CC1CCC(OC(=O)Cc2ccncc2)C1 (stereo unspecified) | 32 µM and 28 µM
3 | O=C(Cc1ccncc1)OC12CC3CC(CC(C3)C1)C2 | 0.61 µM and 0.56 µM
4 | CC1CCC(C(C)C)C(OC(=O)Cc2ccncc2)C1 (stereo in doubt; 12) | 5.1 µM and 4.5 µM
5 | O=C(Cc1ccncc1)OC1=CC2CCC1C2 (stereo in doubt; 14) | 41 µM and 31 µM
6 | CC1CCC(OC(=O)Cc2ccncc2)CC1 (trans isomer) | 4.4 µM and 4.2 µM
7 | CC(C)CCOC(=O)Cc1ccncc1 | > 100 µM
8 | CC1C(OC(=O)Cc2ccncc2)CC2CC1C2(C)C (stereo in doubt; 19) | 1.8 µM and 1.7 µM
9 | CC1(OC(=O)Cc2ccncc2)CCCCC1 | 11 µM and 10 µM
10 | CCC1CCC(OC(=O)Cc2ccncc2)CC1 (stereo unspecified) | 2.7 µM and 2 µM
11 | CC1CCC(C(C)C)C(OC(=O)Cc2ccncc2)C1 (stereo in doubt; 13) | 15 µM and 12 µM
12 | CC1CCC(OC(=O)Cc2ccncc2)CC1 (stereo in doubt; 6) | 36 µM and 25 µM
13 | CC(C)CC(C)OC(=O)Cc1ccncc1 (stereo unspecified) | 17 µM and 13 µM
14 | O=C(Cc1ccncc1)Oc1ccccc1 | > 100 µM
15 | CC1C(OC(=O)Cc2ccncc2)CC2CC1C2(C)C (stereo in doubt; 18) | 0.28 µM and 0.26 µM
16 | CC(C)(C)C1CCC(OC(=O)Cc2ccncc2)CC1 (stereo unspecified) | 3 µM and 2.1 µM
17 | O=C(Cc1ccncc1)OC1=CC2CCC1C2 (stereo in doubt; 15) | 46 µM and 45 µM
18 | CC(C)(C(=O)OC1CCCCC1)c1ccncc1 | 4.5 µM and 3.6 µM
19 | CC(C)OC(=O)Cc1ccncc1 | > 100 µM
20 | CC1(C)C2CCC1(C)C(OC(=O)Cc1ccncc1)C2 (single isomer, unassigned; (-)) | 2.2 µM and 1.5 µM
21 | O=C(Cc1ccncc1)OC1CCCC1 | 131 µM and 77 µM
